From ChEMBL document CHEMBL1127213, “Design of potent K+ channel openers by pharmacophore model” (Bioorg Med Chem Lett, 1993)

Experiments:
Rattus norvegicus [1] = species on record: Rattus norvegicus; assay: Negative logarithm of the molar concentration of compound required to relax rat aorta precontracted with 30 mM KCl by 50%; assay type: functional
Rattus norvegicus [2] = species on record: Rattus norvegicus; assay: Percent intrinsic activity was measured in rat aorta; assay type: functional

EC50 (Rattus norvegicus [1]) [µM]	SMILES	IA (Rattus norvegicus [2]) [%]
0.339	C/N=C(/NC#N)C1=CC(C)(C)Oc2ccc(C#N)cc21	73
0.263	CNC(=O)C1=CC(C)(C)Oc2ccc(C#N)cc21	66.6
–	C/N=C(/S)C1=CC(C)(C)Oc2ccc(C#N)cc21	89
0.0912	CC(C)(C)/N=C(/NC#N)Nc1cccnc1	88
–	CC1(C)Oc2ccc(C#N)cc2[C@@H](N2CCCC2=O)[C@@H]1O [CROMAKALIM]	74.7
0.724	CC(N/C(=N\C#N)Nc1ccncc1)C(C)(C)C (stereo not given) [PINACIDIL ANHYDROUS]	91.9
